Like-named read-outs stand apart in the source and are kept apart here.
Target: truncated form of human NaV 1.8 with full channel activity (Homo sapiens, UniProt Q9Y5Y9)
Test: E-VIPR Assay Method A for detecting and measuring Nav inhibition (HEK cells, membrane potential FRET dyes, electrical stimulation)
Assay type: cell-based
Details: HEK cells expressing human NaV 1.8, HS (human serum) in compound loading buffer, 11 point dose response, top dose 3 μM
Outline: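 HEK cells expressing truncated human NaV1.8, loaded with CC2-DMPE/DiSBAC6(3) FRET dyes, incubated 30 min at room temp with compound (0.625% DMSO), then electrically stimulated (1.25 A biphasic, 10 Hz, 10 s). Inhibition from 460/580 nm ratio Rf/Ri, normalised to positive and DMSO controls.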

[1] = Table 20A, read-out: Nav 1.8 MedChem Optical Assay EVIPR Assay Method A HS IC50
[2] = Table 20, read-out: Nav 1.8 MedChem Optical Assay EVIPR Assay Method A HS IC50

Chain of truncated form of human NaV 1.8 with full channel activity (Q9Y5Y9 126-1722 limits assumed): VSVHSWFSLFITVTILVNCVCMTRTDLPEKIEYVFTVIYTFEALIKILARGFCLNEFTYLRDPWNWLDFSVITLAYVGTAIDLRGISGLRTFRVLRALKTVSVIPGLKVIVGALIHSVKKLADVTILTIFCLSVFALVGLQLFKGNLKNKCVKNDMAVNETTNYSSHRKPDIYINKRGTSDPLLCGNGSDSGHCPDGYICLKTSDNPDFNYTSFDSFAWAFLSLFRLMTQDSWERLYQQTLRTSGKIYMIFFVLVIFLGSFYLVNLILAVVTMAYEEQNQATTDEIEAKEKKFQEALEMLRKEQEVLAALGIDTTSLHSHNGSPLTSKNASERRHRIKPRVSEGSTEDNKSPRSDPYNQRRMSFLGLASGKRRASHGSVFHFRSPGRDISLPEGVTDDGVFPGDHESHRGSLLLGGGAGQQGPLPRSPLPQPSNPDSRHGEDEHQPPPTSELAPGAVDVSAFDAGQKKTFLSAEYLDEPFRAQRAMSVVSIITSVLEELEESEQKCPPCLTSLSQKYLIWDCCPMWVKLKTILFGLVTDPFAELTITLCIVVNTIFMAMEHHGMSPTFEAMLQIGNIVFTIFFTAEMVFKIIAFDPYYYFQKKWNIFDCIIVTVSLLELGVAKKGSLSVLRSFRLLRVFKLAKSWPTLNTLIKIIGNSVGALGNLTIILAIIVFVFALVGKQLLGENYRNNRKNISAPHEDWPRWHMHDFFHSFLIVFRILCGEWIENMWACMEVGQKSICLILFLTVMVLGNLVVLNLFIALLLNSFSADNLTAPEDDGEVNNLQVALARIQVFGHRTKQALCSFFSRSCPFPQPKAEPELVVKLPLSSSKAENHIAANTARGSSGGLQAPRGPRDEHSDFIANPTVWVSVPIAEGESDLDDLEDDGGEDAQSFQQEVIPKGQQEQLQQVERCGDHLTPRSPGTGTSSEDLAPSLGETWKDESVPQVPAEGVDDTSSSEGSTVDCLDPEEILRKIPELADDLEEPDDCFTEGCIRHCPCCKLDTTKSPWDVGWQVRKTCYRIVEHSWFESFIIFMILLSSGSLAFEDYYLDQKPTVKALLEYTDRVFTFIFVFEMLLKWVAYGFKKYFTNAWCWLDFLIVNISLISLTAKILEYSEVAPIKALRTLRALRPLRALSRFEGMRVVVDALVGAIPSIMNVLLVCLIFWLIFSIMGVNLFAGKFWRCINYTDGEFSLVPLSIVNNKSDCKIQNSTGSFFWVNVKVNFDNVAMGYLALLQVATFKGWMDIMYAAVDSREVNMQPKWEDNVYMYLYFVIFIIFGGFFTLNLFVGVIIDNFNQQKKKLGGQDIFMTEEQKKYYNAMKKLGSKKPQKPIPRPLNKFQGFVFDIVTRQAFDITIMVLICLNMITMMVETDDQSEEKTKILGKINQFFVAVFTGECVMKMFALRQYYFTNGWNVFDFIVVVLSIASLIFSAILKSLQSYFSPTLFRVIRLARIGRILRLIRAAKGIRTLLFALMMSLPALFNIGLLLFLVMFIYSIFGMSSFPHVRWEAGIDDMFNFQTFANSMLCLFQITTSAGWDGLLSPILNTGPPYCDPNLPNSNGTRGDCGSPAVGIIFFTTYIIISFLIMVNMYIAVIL

Compound | IC50 [1] [nM] | IC50 [2] [nM]
COc1cc(OC(F)(F)F)ccc1Oc1cc2c(cc1C(=O)Nc1ccc(C(N)=O)nc1)OC(F)(F)O2 [Compound 197, 5-[[2,2-Difluoro-6-[2-methoxy-4-(trifluoromethoxy)phenoxy]-1,3-benzodioxole-5-carbonyl]amino]pyridine-2-carboxamide] | 460 | –
NC(=O)c1ccc(NC(=O)c2c(Oc3ccc(OC(F)(F)F)cc3)ccc3c2CCC3(F)F)cn1 [Compound 192, 5-[[1,1-Difluoro-5-[4-(trifluoromethoxy)phenoxy]indane-4-carbonyl]amino]pyridine-2-carboxamide] | 420 | –
[2H]C([2H])([2H])Oc1cc(OC(F)(F)F)ccc1Oc1cc(OC(F)(F)F)ccc1C(=O)Nc1ccnc(C(N)=O)c1 [Compound 147, 4-[[2-[2-(Trideuteriomethoxy)-4-(trifluoromethoxy)phenoxy]-4-(trifluoromethoxy)benzoyl]amino]pyridine-2-carboxamide] | 130 | –
COc1cc(OC(F)(F)F)ccc1Oc1cc(C(F)(F)F)c(F)cc1C(=O)Nc1ccc(F)c(C(N)=O)c1 [Compound 23, N-(3-carbamoyl-4-fluoro-phenyl)-5-fluoro-2-[2-methoxy-4-(trifluoromethoxy)phenoxy]-4-(trifluoromethyl)benzamide] | – | 14
COc1cc(OC(F)(F)F)ccc1Oc1ccc(C(F)(F)F)c(F)c1C(=O)Nc1cccc(C(=O)N(C)C)c1 [Compound 96, N-[3-(dimethylcarbamoyl)phenyl]-2-fluoro-6-[2-methoxy-4-(trifluoromethoxy)phenoxy]-3-(trifluoromethyl)benzamide] | 54 | –
COc1cc(OC(F)(F)F)ccc1Oc1cc(C2CC2)ncc1C(=O)Nc1ccnc(C(N)=O)c1 [Compound 78] | 97 | –
[2H]C([2H])([2H])Oc1cc(OC(F)(F)F)ccc1Oc1cc(C(F)(F)F)cc(F)c1C(=O)Nc1ccnc(C(N)=O)c1 [Compound 17, 4-[[2-fluoro-6-[2-(trideuteriomethoxy)-4-(trifluoromethoxy)phenoxy]-4-(trifluoromethyl)benzoyl]amino]pyridine-2-carboxamide] | – | 8
COc1ccc(Oc2cccc(C(F)(F)F)c2C(=O)Nc2ccc(F)c(C(N)=O)c2)c(OC)c1 [Compound 38, N-(3-Carbamoyl-4-fluoro-phenyl)-2-(2,4-dimethoxyphenoxy)-6-(trifluoromethyl)benzamide] | 700 | –
Cc1cc(OC(F)(F)F)ccc1Oc1ccc(C(F)(F)F)c(F)c1C(=O)Nc1ccc(F)c(C(N)=O)c1 [Compound 10, N-(3-carbamoyl-4-fluoro-phenyl)-2-fluoro-6-[2-methyl-4-(trifluoromethoxy)phenoxy]-3-(trifluoromethyl)benzamide] | – | 3
CCOc1c(C(F)(F)F)ncc(Oc2ccc(OC(F)(F)F)cc2OC)c1C(=O)Nc1cc(C(N)=O)ncc1C [Compound 210, N-(2-Carbamoyl-5-methyl-4-pyridyl)-3-ethoxy-5-[2-methoxy-4-(trifluoromethoxy)phenoxy]-2-(trifluoromethyl)pyridine-4-carboxamide] | 140 | –
COc1cc(OC(F)(F)F)ccc1Oc1cc(C(C)(C)C)ncc1C(=O)Nc1ccc(F)c(C(N)=O)c1 [Compound 94, 6-tert-Butyl-N-(3-carbamoyl-4-fluoro-phenyl)-4-[2-methoxy-4-(trifluoromethoxy)phenoxy]pyridine-3-carboxamide] | 18 | –
COc1cc(OC(F)(F)F)ccc1Oc1ccc(Cl)c(F)c1C(=O)Nc1ccnc(C(N)=O)c1 [Compound 5, 4-[[3-chloro-2-fluoro-6-[2-methoxy-4-(trifluoromethoxy)phenoxy]benzoyl]amino]pyridine-2-carboxamide] | – | 2
NC(=O)c1cc(NC(=O)c2c(Oc3ccc(OC(F)(F)F)cc3)ccc(C(F)F)c2F)ccc1F [Compound 74, N-(3-Carbamoyl-4-fluoro-phenyl)-3-(difluoromethyl)-2-fluoro-6-[4-(trifluoromethoxy)phenoxy]benzamide] | 22 | –
NC(=O)c1cc(NC(=O)c2c(Oc3ccc(OC(F)(F)F)cc3)cc(OCc3ccccc3)c(C(F)(F)F)c2F)ccc1F [Compound 215, 4-Benzyloxy-N-(3-carbamoyl-4-fluoro-phenyl)-2-fluoro-6-[4-(trifluoromethoxy)phenoxy]-3-(trifluoromethyl)benzamide] | 18 | –
COc1cc(OC(F)(F)F)ccc1Oc1cc(C(C)(C)F)ncc1C(=O)Nc1ccnc(C(N)=O)c1 [Compound 104, N-(2-Carbamoyl-4-pyridyl)-6-(1-fluoro-1-methyl-ethyl)-4-[2-methoxy-4-(trifluoromethoxy)phenoxy]pyridine-3-carboxamide] | 64 | –
[2H]C([2H])([2H])Oc1cc(OC(F)(F)F)ccc1Oc1ccc(C(F)(F)F)c(F)c1C(=O)Nc1cnc(C(N)=O)cc1C [Compound 161, 5-[[2-fluoro-6-[2-(trideuteriomethoxy)-4-(trifluoromethoxy)phenoxy]-3-(trifluoromethyl)benzoyl]amino]-4-methyl-pyridine-2-carboxamide] | 150 | –
NC(=O)c1cc(NC(=O)c2c(Oc3ccc(F)cc3)cccc2C(F)(F)F)ccc1F [Compound 37, N-(3-Carbamoyl-4-fluoro-phenyl)-2-(4-fluorophenoxy)-6-(trifluoromethyl)benzamide] | 890 | –
COc1cc(OC(F)(F)F)ccc1Oc1ccc(C(F)(F)F)c(F)c1C(=O)Nc1cc(F)cc(C(N)=O)c1 [Compound 100, N-(3-carbamoyl-5-fluoro-phenyl)-2-fluoro-6-[2-methoxy-4-(trifluoromethoxy)phenoxy]-3-(trifluoromethyl)benzamide] | 9 | –
Cc1cc(F)c(C(N)=O)cc1NC(=O)c1c(Oc2ccc(OC(F)(F)F)cc2)ccc(C(F)(F)F)c1F [Compound 124, N-(5-Carbamoyl-4-fluoro-2-methyl-phenyl)-2-fluoro-6-[4-(trifluoromethoxy)phenoxy]-3-(trifluoromethyl)benzamide] | 220 | –
COc1cc(OC(F)(F)F)ccc1Oc1cc(C2(C(F)(F)F)CC2)ncc1C(=O)Nc1ccnc(C(N)=O)c1 [Compound 119, N-(2-Carbamoyl-4-pyridyl)-4-[2-methoxy-4-(trifluoromethoxy)phenoxy]-6-[1-(trifluoromethyl)cyclopropyl]pyridine-3-carboxamide] | 48 | –
[2H]C([2H])([2H])Oc1cc(OC(F)(F)F)ccc1Oc1cc(C2CC2)ncc1C(=O)Nc1ccc(F)c(C(N)=O)c1 [Compound 88, N-(3-Carbamoyl-4-fluoro-phenyl)-6-cyclopropyl-4-[2-(trideuteriomethoxy)-4-(trifluoromethoxy)phenoxy]pyridine-3-carboxamide] | 49 | –

More lines, in order of falling IC50 [1], values ahead:

IC50 [1] [nM] | IC50 [2] [nM] | Compound
600 | – | COc1cc(OC(F)(F)F)ccc1Oc1cc(Cl)cc(OC)c1C(=O)Nc1ccc(C(N)=O)nc1 [Compound 204, 5-[[4-Chloro-2-methoxy-6-[2-methoxy-4-(trifluoromethoxy)phenoxy]benzoyl]amino]pyridine-2-carboxamide]
190 | – | NC(=O)c1cc(NC(=O)c2c(Oc3cccc4c3OCC4)ccc(C(F)(F)F)c2F)ccc1F [Compound 58, N-(3-Carbamoyl-4-fluoro-phenyl)-6-(2,3-dihydrobenzofuran-7-yloxy)-2-fluoro-3-(trifluoromethyl)benzamide]
185 | – | NC(=O)c1cc(NC(=O)c2c(Oc3ccc(OC(F)(F)F)cc3)ccc(F)c2F)ccn1 [Compound 64, 4-[[2,3-Difluoro-6-[4-(trifluoromethoxy)phenoxy]benzoyl]amino]pyridine-2-carboxamide]
180 | – | COc1cc(OC(F)(F)F)ccc1Oc1cc2c(cc1C(=O)Nc1ccnc(C(N)=O)c1)OC(F)(F)O2 [Compound 121, 4-[[2,2-Difluoro-6-[2-methoxy-4-(trifluoromethoxy)phenoxy]-1,3-benzodioxole-5-carbonyl]amino]pyridine-2-carboxamide]
140 | – | [2H]C([2H])([2H])Oc1cc(OC(F)(F)F)ccc1Oc1ccc(C(F)(F)F)c(F)c1C(=O)Nc1cccc(C(N)=O)n1 [Compound 168, 6-[[2-Fluoro-6-[2-(trideuteriomethoxy)-4-(trifluoromethoxy)phenoxy]-3-(trifluoromethyl)benzoyl]amino]pyridine-2-carboxamide]
45 | – | [2H]C([2H])([2H])Oc1cc(OC(F)(F)F)ccc1Oc1ccc(OC(F)(F)F)c(F)c1C(=O)Nc1ccc(C(N)=O)nc1 [Compound 167, 5-[[2-fluoro-6-[2-(trideuteriomethoxy)-4-(trifluoromethoxy)phenoxy]-3-(trifluoromethoxy)benzoyl]amino]pyridine-2-carboxamide]
22 | – | NC(=O)c1cccc(NC(=O)c2c(Oc3ccc(OC(F)(F)F)cc3)ccc(C(F)(F)F)c2F)c1 [Compound 47, N-(3-carbamoylphenyl)-2-fluoro-6-[4-(trifluoromethoxy)phenoxy]-3-(trifluoromethyl)benzamide]
11 | – | NC(=O)c1cc(NC(=O)c2c(Oc3ccc(OC(F)(F)F)cc3)cnc(C(F)(F)F)c2F)ccc1F [Compound 62, N-(3-Carbamoyl-4-fluoro-phenyl)-3-fluoro-5-[4-(trifluoromethoxy)phenoxy]-2-(trifluoromethyl)pyridine-4-carboxamide]
7 | – | Cc1cc(OC(F)(F)F)ccc1Oc1ccc(C(F)(F)F)c(F)c1C(=O)Nc1ccnc(C(N)=O)c1 [Compound 59, 4-[[2-fluoro-6-[2-methyl-4-(trifluoromethoxy)phenoxy]-3-(trifluoromethyl)benzoyl]amino]pyridine-2-carboxamide]
6 | – | [2H]C([2H])([2H])Oc1cc(OC(F)(F)F)ccc1Oc1ccc(C(F)(F)F)c(F)c1C(=O)Nc1cc[n+]([O-])c(C(N)=O)c1 [Compound 115, 4-[[2-Fluoro-6-[2-(trideuteriomethoxy)-4-(trifluoromethoxy)phenoxy]-3-(trifluoromethyl)benzoyl]amino]-1-oxido-pyridin-1-ium-2-carboxamide]
